31 molecules from US11612604B2, “Methods of treating cancer with PLK4 inhibitors” (LUDWIG INSTITUTE FOR CANCER RESEARCH LTD, priority 2017, dated 2023) can be followed below.

A value given as a limit tells only on which side of the number the result lay.

The target of one assay is T1, PLK4 (Homo sapiens, UniProt O00444).
T1 sequence (O00444 1-970): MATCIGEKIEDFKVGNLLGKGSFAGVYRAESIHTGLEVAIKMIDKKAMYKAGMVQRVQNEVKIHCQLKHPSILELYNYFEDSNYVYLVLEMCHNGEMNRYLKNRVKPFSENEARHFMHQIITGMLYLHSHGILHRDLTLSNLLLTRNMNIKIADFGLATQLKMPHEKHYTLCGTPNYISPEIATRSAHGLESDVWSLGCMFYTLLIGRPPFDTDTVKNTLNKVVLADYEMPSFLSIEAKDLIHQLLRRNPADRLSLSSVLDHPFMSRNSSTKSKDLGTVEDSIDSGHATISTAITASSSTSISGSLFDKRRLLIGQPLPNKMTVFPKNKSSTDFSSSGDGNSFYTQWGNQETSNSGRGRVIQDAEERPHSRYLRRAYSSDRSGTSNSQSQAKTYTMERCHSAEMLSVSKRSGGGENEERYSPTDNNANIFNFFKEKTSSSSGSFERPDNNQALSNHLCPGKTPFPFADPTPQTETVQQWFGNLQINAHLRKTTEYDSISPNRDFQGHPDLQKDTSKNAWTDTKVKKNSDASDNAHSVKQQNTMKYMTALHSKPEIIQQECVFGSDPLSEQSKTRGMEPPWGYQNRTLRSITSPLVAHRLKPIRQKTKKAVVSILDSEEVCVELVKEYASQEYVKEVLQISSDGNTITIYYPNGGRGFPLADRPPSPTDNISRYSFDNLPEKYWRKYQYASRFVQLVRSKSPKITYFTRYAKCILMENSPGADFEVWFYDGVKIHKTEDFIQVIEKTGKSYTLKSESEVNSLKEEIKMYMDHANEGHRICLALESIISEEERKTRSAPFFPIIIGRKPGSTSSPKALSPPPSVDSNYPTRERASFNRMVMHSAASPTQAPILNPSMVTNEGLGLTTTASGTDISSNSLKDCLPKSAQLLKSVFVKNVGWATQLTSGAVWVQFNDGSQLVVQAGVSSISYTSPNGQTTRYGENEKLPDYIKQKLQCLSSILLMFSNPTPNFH
The assay is described as follows: Activity (IC50) of the Table 1 compounds as PLK4 inhibitors. It is filed as biochemical. The conditions noted are these: Table 1, IC50 class.
As to `Cc1cc(Nc2nc(Sc3ccc(NC(=O)C4CC4)cc3)nc(N(C)C(C)C)c2C)n[nH]1`, the IC50 was below 100 nM.

Molecule `COCCNc1nc(Sc2ccc(NC(=O)C3CC3)cc2)nc(Nc2cc(C)[nH]n2)c1C` showed an IC50 below 100 nM.

For `Cc1cc(Nc2nc(Sc3ccc(NC(=O)C4CC4)cc3)nc(N3CCCCC3)c2C)n[nH]1`, the IC50 was below 100 nM.

As for `COc1c(Nc2cc(C)[nH]n2)nc(Sc2ccc(NC(C)=O)cc2)nc1N1CCC(O)CC1C` (stereo not shown), the IC50 is below 100 nM.

Turning to `COc1c(Nc2cc(C)[nH]n2)nc(Sc2ccc(NC(C)=O)cc2)nc1N1CCN(CCN2CCOCC2)CC1`, the IC50 was below 100 nM.

`CC(=O)Nc1ccc(Sc2nc(Nc3cc(C)[nH]n3)c(C)c(N3CCN(CCN4CCCCC4)CC3)n2)cc1`: the IC50 was below 100 nM.

In the case of `CC(=O)Nc1ccc(Sc2nc(Nc3cc(C)[nH]n3)c(C)c(N3CCC(OCCN(C)C)CC3)n2)cc1`, the IC50 is below 100 nM.

`CC(=O)Nc1ccc(Sc2nc(Nc3cc(C)[nH]n3)c(C)c(N3CCOC[C@@H]3C)n2)cc1` gave an IC50 below 100 nM.

The molecule `COc1c(Nc2cc(C)[nH]n2)nc(Sc2ccc(NC(C)=O)cc2)nc1N1CCN(CCN2CCCCC2)CC1` yielded an IC50 below 100 nM.

Take `COc1c(Nc2cc(C)[nH]n2)nc(Sc2ccc(NC(C)=O)cc2)nc1N1CCN(CCCN(C)C)CC1`: the IC50 is below 100 nM.

In the case of `COc1c(Nc2cc(C)[nH]n2)nc(Sc2ccc(NC(C)=O)cc2)nc1N1CCC(O)C1` (stereo not shown), the IC50 is below 100 nM.

The molecule `CSc1nc(Nc2cc(C)[nH]n2)c(C)c(N2CCN(CCN(C)C)CC2)n1` returned an IC50 below 100 nM.

For the molecule `COc1c(Nc2cc(C)[nH]n2)nc(Sc2ccc(NC(=O)C(F)(F)F)cc2)nc1N1CCN(CCN(C)C)CC1`, the IC50 is below 100 nM.

Take `CNC(=O)Nc1ccc(Sc2nc(Nc3cc(C)[nH]n3)c(OC)c(N3CCN(CCN(C)C)CC3)n2)cc1`: the IC50 was below 100 nM.

As for `CC(=O)Nc1ccc(Sc2nc(Nc3cc(C)[nH]n3)c(C)c(N3CCOC[C@H]3C)n2)cc1`, the IC50 was below 100 nM.

The molecule `COc1c(Nc2cc(C)[nH]n2)nc(Sc2ccc(NC(C)=O)cc2)nc1N1CCN(CCNC(C)=O)CC1` yielded an IC50 below 100 nM.

With `CNCCN1CCN(c2nc(Sc3ccc(NC(C)=O)cc3)nc(Nc3cc(C)[nH]n3)c2OC)CC1`, the IC50 is below 100 nM.

On to `COc1c(Nc2cc(C)[nH]n2)nc(Sc2ccc(S(=O)(=O)Cc3ccccc3F)cc2)nc1N1CCOCC1`, for which the IC50 is below 100 nM.

Take `COc1c(Nc2cc(C)[nH]n2)nc(Sc2ccc(S(=O)(=O)Cc3ccccc3[N+](=O)[O-])cc2)nc1N1CCN(CCN(C)C)CC1`: the IC50 is below 100 nM.

The molecule `COc1c(Nc2cc(C)[nH]n2)nc(Sc2ccc(NC(C)=O)cc2)nc1N1CCOC[C@@H]1C` gave an IC50 below 100 nM.

For `COc1c(Nc2cc(C)[nH]n2)nc(Sc2ccc(NC(C)=O)cc2)nc1N1CCOC[C@H]1C`, the IC50 is below 100 nM.

The molecule `COc1c(Nc2cc(C)[nH]n2)nc(Sc2ccc(NC(N)=O)cc2)nc1N1CCN(CCN(C)C)CC1` returned an IC50 below 100 nM.

On to `COc1c(Nc2cc(C)[nH]n2)nc(Sc2ccc(S(=O)(=O)Cc3cccc(C(F)(F)F)c3)cc2)nc1N1CCN(CCN(C)C)CC1`, for which the IC50 is below 100 nM.

As to `COc1c(Nc2cc(C)[nH]n2)nc(Sc2ccc(S(=O)(=O)Cc3cccc(F)c3F)cc2)nc1N1CCN(CCN(C)C)CC1`, the IC50 was below 100 nM.

The molecule `CC(=O)Nc1ccc(Sc2nc(Cc3cc(C)[nH]n3)c(C)c(NC3CCN(C)CC3)n2)cc1` came in with an IC50 below 100 nM.

On to `CC(=O)Nc1ccc(Sc2nc(Nc3cc(C)[nH]n3)c(C)c(NC3CCNCC3)n2)cc1`, for which the IC50 is below 100 nM.

`COc1c(Nc2cc(C)[nH]n2)nc(Sc2ccc(NC(C)=O)cc2)nc1N1CCN(CC(=O)N(C)C)CC1`: the IC50 was below 100 nM.

Turning to `COc1c(Nc2cc(C)[nH]n2)nc(Sc2ccc(NC(C)=O)cc2)nc1NC1CCN(C)CC1`, the IC50 was below 100 nM.

The molecule `COc1c(Nc2cc(C)[nH]n2)nc(Sc2ccc(NC(C)=O)cc2)nc1N1CCC(C(=O)N(C)C)CC1` returned an IC50 below 100 nM.

In turn, `COc1c(Nc2cc(C)[nH]n2)nc(Sc2ccc(S(=O)(=O)Cc3cccc([N+](=O)[O-])c3F)cc2F)nc1N1CCCCC1` [drawing 376] had an IC50 below 100 nM.

In the next assay the test system is caspase-3/7 activity in 'Sensitive' neuroblastoma and 'Not Sensitive' (RPE1, BT-12, BT-16) cell lines. As to the kind of experiment: Caspase activation assay. The format is cell-based. Conditions: 500 nM centrinone B, four cell cycle durations, compared with centrinone.
Regarding `COc1c(Nc2cc(C)[nH]n2)nc(Sc2ccc(S(=O)(=O)Cc3cccc([N+](=O)[O-])c3F)cc2F)nc1N1CCCCC1` [centrinone B], the caspase activity result was “Comparable levels of caspase activity”.
